In patent publication US9913921B2, “Pretargeting kit for imaging or therapy comprising a trans-cyclooctene dienophile and a diene” (TAGWORKS PHARMACEUTICALS B.V., priority 2011, dated 2018):

Assays:
[1] = Stability of trans-cyclooctene derivatives; type: physicochemical; conditions: PBS buffer, 20° C., in the dark, estimation
Method: 10 μL of a solution of the specific trans-cyclooctene derivative in dioxane (25 mM) was diluted with PBS buffer (3 mL), and this solution was stored at 20° C. in the dark. The faith of the TCO compound was monitored by HPLC-MS analysis, and an estimation of the half-life time was made.

[2] = Reactivity of trans-cyclooctene derivatives towards bis(2-pyridyl)-1,2,4,5-tetrazine, competition experiment; conditions: for reactivity towards tetrazines compared to minor isomer of trans-cyclooct-4-ene-1-ol: in words; for Reactivity ratio (R = k2,TCO/k2,Ref): reference trans-cyclooct-4-ene-1-ol (minor isomer)
Method: A competition experiment was performed to determine the reactivity ratio of a specific trans-cyclooctene derivative and trans-cyclooct-4-ene-1-ol (minor isomer) (that was chosen as the reference trans-cyclooctene), in the inverse-electron demand Diels-Alder reaction with bis(2-pyridyl)-1,2,4,5-tetrazine.
This mixture was diluted with water (0.45 mL). Subsequently, a solution of bis(2-pyridyl)-1,2,4,5-tetrazine (6.25*10^−8 mol) in a mixture of acetonitrile (0.05 mL) and water (0.45 mL) was slowly added while stirring vigorously. After addition, the mixture was stirred for an additional 5 min. The conversion of both trans-cyclooctene derivatives was determined by HPLC-MS/PDA analysis, and from these conversions, the reactivity ratio (R=k2,TCO/k2,Ref) of the specific trans-cyclooctene derivative was calculated using the mathematical procedure from Ingold and Shaw (J. Chem. Soc., 1927, 2918-2926).

[3] = Reaction of trans-cyclooctene β-lactam derivative with tetrazine; conditions: equimolar (6.25*10^−8 mol) in water, immediate discoloration, HPLC-MS
Method: (§1) To a solution of 3-(5-acetamido-2-pyridyl)-6-(2-pyridyl)-1,2,4,5-tetrazine (6.25*10^−8 mol) in water (1 mL) was added the trans-cyclooctene β-lactam derivative 25 (6.25*10^−8 mol). […] This was confirmed by HPLC-MS analysis: complete disappearance of the tetrazine signal and formation of the rDA adduct with m/z=475.33 (M+H^+).

[4] = as above; conditions: equimolar (6.25*10^−8 mol) in water, immediate discoloration, HPLC-MS; remark: listed apart in the source
Method: as §1, with “3-(5-butyramido-2-pyridyl)-6-(2-pyrimidyl)-1,2,4,5-tetrazine” for “3-(5-acetamido-2-pyridyl)-6-(2-pyridyl)-1,2,4,5-tetrazine”, “m/z=504.42” for “m/z=475.33”

[5] = as above; conditions: equimolar (6.25*10^−8 mol) in water, immediate discoloration, HPLC-MS; remark: listed apart in the source
Method: as §1, with “(4-(1,2,4,5-tetrazin-3-yl)phenyl)methanamine” for “3-(5-acetamido-2-pyridyl)-6-(2-pyridyl)-1,2,4,5-tetrazine”, “m/z=369.17” for “m/z=475.33”

[6] = as above; conditions: equimolar (6.25*10^−8 mol) in water, immediate discoloration, HPLC-MS; remark: listed apart in the source
[7] = as above; conditions: tetrazine suspension in water
Method: as §1, with “suspension” for “solution”, “3,6-diphenyl-1,2,4,5-tetrazine” for “3-(5-acetamido-2-pyridyl)-6-(2-pyridyl)-1,2,4,5-tetrazine”, “m/z=416.42” for “m/z=475.33”

[8] = Hydrolytic stability tests of tetrazines; type: physicochemical; conditions: PBS buffer, 20° C.
[9] = Reactivity of tetrazines towards trans-cyclooct-4-ene-1-ol (minor isomer), competition experiment; conditions: reference 3-(5-acetamido-2-pyridyl)-6-(2-pyridyl)-1,2,4,5-tetrazine
Method: A competition experiment was performed to determine the reactivity ratio of a specific tetrazine and 3-(5-acetamido-2-pyridyl)-6-(2-pyridyl)-1,2,4,5-tetrazine (that was chosen as the reference tetrazine), in the inverse-electron demand Diels-Alder reaction with trans-cyclooct-4-ene-1-ol (minor isomer).
To acetonitrile (0.100 mL) was added 5 μL of a solution of the specific tetrazine in DMSO (25 mM) and 5 μL, of a solution of the reference tetrazine in DMSO (25 mM). This mixture was diluted with water (0.9 mL), and the absolute amounts of both tetrazines was determined by HPLC-MS/PDA analysis. Subsequently, a solution of trans-cyclooct-4-ene-1-ol (minor isomer) in DMSO (25 μL, 2.5 mM) was slowly added, and the mixture was stirred for 5 min. Again, the absolute amounts of both tetrazines was determined by HPLC-MS/PDA analysis, and conversions for both tetrazines was calculated. From these conversions, the reactivity ratio (R=k2,TCO/k2,Ref) of both tetrazines was calculated using the mathematical procedure from Ingold and Shaw (J. Chem. Soc., 1927, 2918-2926).

For O=C(O)CN1C(=O)C2CC/C=C/CCC21 (stereo not shown) [compound 25, (E)-2-(10-oxo-9-azabicyclo[6.2.0]dec-4-en-9-yl)acetic acid], the half-life at 83 µM [1] was roughly 24 h, the “reactivity towards tetrazines compared to minor isomer of trans-cyclooct-4-ene-1-ol” value [2] was “markedly increased reactivity” and the “Reactivity ratio (R = k2,TCO/k2,Ref)” value [2] was 5.4. For the same compound, the reaction with tetrazine [3] was “quantitative reaction”, the reaction with tetrazine [4] was “quantitative reaction” and the reaction with tetrazine [5] was “quantitative reaction”. The reaction with tetrazine [6] was “quantitative reaction”, the reaction with tetrazine ([7]; equimolar (6.25*10^−8 mol), HPLC-MS) was “quantitative reaction” and the “time until pink, turbid mixture became clear and colorless” value [7] was no more than 15 min.
With O=C(O)C1C2CC/C=C/CCC21 (stereo not drawn) [compound 5, (E-exo)-Bicyclo[6.1.0]non-4-ene-9-carboxylic acid] the “reactivity towards tetrazines compared to minor isomer of trans-cyclooct-4-ene-1-ol” value [2] was “markedly increased reactivity” and the “Reactivity ratio (R = k2,TCO/k2,Ref)” value ([2]; listed as drawing 43) was 20.0.
For c1cnc(-c2nnc(-c3ncccn3)nn2)nc1, the half-life at 83 µM [8] was 4.5 h and the “Reactivity ratio (R = k2,TZ/k2,Ref)” value [9] was 0.12.
For O=C(O)C1C2CC/C=C/CCC21 (stereo not drawn) [compound 4, (E-endo)-Bicyclo[6.1.0]non-4-ene-9-carboxylic acid], the half-life at 83 µM [1] was greater than 72 h, the “reactivity towards tetrazines compared to minor isomer of trans-cyclooct-4-ene-1-ol” value [2] was “markedly increased reactivity” and the “Reactivity ratio (R = k2,TCO/k2,Ref)” value ([2]; listed as drawing 42) was 13.1.
In the case of O=C1N[C@H]2CC/C=C/CC[C@H]2N1 [compound 40, Cis (E)-3,3a,4,5,9,9a-hexahydro-1H-cycloocta[d]imidazol-2(8H)-one], the half-life at 83 µM [1] was greater than 72 h, the “reactivity towards tetrazines compared to minor isomer of trans-cyclooct-4-ene-1-ol” value [2] was “markedly increased reactivity” and the “Reactivity ratio (R = k2,TCO/k2,Ref)” value [2] was 7.3.
